Assays:
[1] = tested on: Human B Lymphocyte cell line, SU-DHL-8; test: Relative cell viability (CCK-8), SU-DHL-8; type: cell-based; conditions: for Relative cell viability (%): 48 hours, untreated cells (DMSO) = 100%
Description: Human-derived B lymphoma cell line SU-DHL-8 (Cat. #CRL-2961) purchased from ATCC was cultured in RPMI-1640 medium containing […], 100 U/mL penicillin, and 100 μg/mL streptomycin.
The cell culture medium was then harvested, centrifuged at 1,300 rpm for 5 minutes, and the supernatant was removed. The cells were resuspended in the same medium and dispensed into a 96-well plate (Costar 96-well cell culture plate, Corning) at 90 μL per well, resulting in the conditions specified in Table 5.
Then, 10 μL of CCK-8 was added to each well, and the plates were incubated again at 37° C. in a 5% CO2 incubator for 4 hours.
In other words, when the survival rate of untreated cells (DMSO) is set at 100%, the relative cell survival rate in each group treated with the drug at different concentrations is indicated.

[2] = tested on: T cells isolated from mouse spleens; test: T cell proliferation inhibition (CFSE flow cytometry, anti-CD3/anti-CD28 activation); type: cell-based, C57BL/6 mice; conditions: mouse spleen T cells, CD3/CD28 activated, cultured three days
Description: To verify the T cell proliferation inhibitory effect of the compounds according to the present invention, the following experiment was performed based on flow cytometry analysis using carboxyfluorescein diacetate succinimidyl ester (CFSE), a fluorescent dye that binds to intracellular molecules via covalent bonds.
Spleens were extracted from 7-week-old C57BL/6 mice, ground, and then separated into single cells using a strainer ([…], SPL). Red blood cells were removed using ACK (Ammonium-Chloride-Potassium) lysis buffer to isolate white blood cells.
Finally, using a MACS Magnetic Stand and LS column, T cells were isolated from the spleen.
The T cells isolated from the spleen were resuspended in 1 mL of free medium (RPMI-1640+200 U/mL penicillin+200 μg/mL streptomycin), and 0.3 μL of CFSE (10 mM) was added. The mixture was incubated at 37° C. for 5 minutes.
Free medium (10 mL) was added to stop the reaction, and the cells were centrifuged to obtain the cell pellet.
RPMI 1640 medium containing 10% FBS, 100 U/mL penicillin, 100 μg/mL streptomycin, and resuspended the cells. The cells were then seeded into a 96-well plate at a density of 2×10^5 cells per well and activated with CD3 and CD28 antibodies ([…]) to activate T cells.
The compound diluted in DMSO was added at concentrations of 10 nM, 100 nM, 1 μM, […], 30 μM, and 50 µM, with three wells per concentration, and cultured at 37° C. and 5% CO2 for three days. The cells were then analyzed using a FACS Canto instrument.
The proliferation inhibition rate (%) was calculated using the following formula: […]

Compound	Relative cell viability (%) ([1]; SU-DHL-8, 30 μM)	Proliferation inhibition rate (%) ([2]; 100 nM)	Proliferation inhibition rate (%) ([2]; 1 μM)	Proliferation inhibition rate (%) ([2]; 10 μM)	Proliferation inhibition rate (%) ([2]; 30 μM)	Proliferation inhibition rate (%) ([2]; 50 μM)	Proliferation inhibition rate (%) ([2]; 10 nM)	also measured
Nc1ncccc1C(=O)NCCCCCCCCCCCCN1CCC(F)C1 (stereo not drawn) [Compound 26, 2-Amino-N-(12-(3-fluoropyrrolidin-1-yl)dodecyl) nicotinamide]	0.05%	100.00%	100.00%	100.00%	100.00%	100.00%	–	Relative cell viability (%) ([1]; SU-DHL-8, 1 μM): 1.70%
CN(C)C1CCN(CCCCCCCCCCCCNC(=O)c2cccnc2N)C1 (stereo not drawn) [Compound 19, 2-Amino-N-(12-(3-(dimethylamino)pyrrolidin-1-yl)dodecyl) nicotinamide]	5.98%	100.00%	100.00%	100.00%	100.00%	100.00%	−14.40%	Relative cell viability (%) ([1]; SU-DHL-8, 1 μM): 8.51%; Relative cell viability (%) ([1]; SU-DHL-8, 10 μM): 7.51%; Relative cell viability (%) ([1]; SU-DHL-8, 50 μM): 5.08%
Nc1ncccc1C(=O)NCCCCCCCCCCCCN1CCC(Oc2ccncc2)CC1 [Compound 38, 2-Amino-N-(12-(4-(pyridin-4-yloxy)piperidin-1-yl)dodecyl) nicotinamide]	–	100.00%	100.00%	100.00%	100.00%	100.00%	–	Relative cell viability (%) ([1]; SU-DHL-8, 10 μM): 3.30%
CC(C)(C)OC(=O)N[C@H]1CCN(CCCCCCCCCCCCNC(=O)c2cccnc2N)C1 [Compound 49, tert-Butyl(S)-(1-(12-(2-aminonicotinamido)dodecyl)pyrrolidin-3-yl)carbamate]	–	–	–	–	–	–	–	viability at 1 µM ([1]; Homo sapiens, SU-DHL-8, 48 h, read-out: Relative cell viability (%), SU-DHL-8, 1 μM, untreated cells (DMSO) = 100%): 8.93%; viability at 10 µM ([1]; Homo sapiens, SU-DHL-8, 48 h, read-out: Relative cell viability (%), SU-DHL-8, 10 μM, untreated cells (DMSO) = 100%): 8.02%; viability at 30 µM ([1]; Homo sapiens, SU-DHL-8, 48 h, read-out: Relative cell viability (%), SU-DHL-8, 30 μM, untreated cells (DMSO) = 100%): 7.48%; viability at 50 µM ([1]; Homo sapiens, SU-DHL-8, 48 h, read-out: Relative cell viability (%), SU-DHL-8, 50 μM, untreated cells (DMSO) = 100%): 4.09%; inhibition at 0.01 µM ([2]; Mus musculus, T-cell, 72 h, 10 nM, read-out: Proliferation inhibition rate (%)): -22.6%; inhibition at 0.1 µM ([2]; Mus musculus, T-cell, 72 h, 100 nM, read-out: Proliferation inhibition rate (%)): 100%; inhibition at 1 µM ([2]; Mus musculus, T-cell, 72 h, 1 μM, read-out: Proliferation inhibition rate (%)): 100%; inhibition at 10 µM ([2]; Mus musculus, T-cell, 72 h, 10 μM, read-out: Proliferation inhibition rate (%)): 100%; inhibition at 30 µM ([2]; Mus musculus, T-cell, 72 h, 30 μM, read-out: Proliferation inhibition rate (%)): 100%; inhibition at 50 µM ([2]; Mus musculus, T-cell, 72 h, 50 μM, read-out: Proliferation inhibition rate (%)): 100%
CN1CCN(C2CCN(CCCCCCCCCCCCNC(=O)c3cccnc3N)CC2)CC1 [Compound 124, 2-Amino-N-(12-(4-(4-methylpiperazin-1-yl)piperidin-1-yl)dodecyl) nicotinamide]	32.10%	20.00%	30.00%	100.00%	100.00%	100.00%	0.00%	Relative cell viability (%) ([1]; SU-DHL-8, 1 μM): 30.43%; Relative cell viability (%) ([1]; SU-DHL-8, 10 μM): 30.70%; Relative cell viability (%) ([1]; SU-DHL-8, 50 μM): 31.72%
Nc1ncccc1C(=O)NCCCCCCCCCCCCN1CCS(=O)(=O)CC1 [Compound 25, 2-Amino-N-(12-(1,1-dioxidothiomorpholino)dodecyl) nicotinamide]	0.11%	–	100.00%	100.00%	100.00%	100.00%	–	Relative cell viability (%) ([1]; SU-DHL-8, 50 μM): 0.95%
COc1ccc(CN2CCN(CCCCCCCCCCCCNC(=O)c3cccnc3N)CC2)cc1 [Compound 28, 2-Amino-N-(12-(4-(4-methoxybenzyl)piperazin-1-yl)dodecyl) nicotinamide]	0.33%	100.00%	100.00%	100.00%	100.00%	100.00%	−0.27%	Relative cell viability (%) ([1]; SU-DHL-8, 1 μM): 5.46%; Relative cell viability (%) ([1]; SU-DHL-8, 10 μM): 2.82%
CC(C)N1CCN(CCCCCCCCCCCCNC(=O)c2cccnc2N)CC1 [Compound 104, 2-Amino-N-(12-(4-isopropylpiperazin-1-yl)dodecyl) nicotinamide]	–	100.00%	100.00%	100.00%	100.00%	100.00%	100.00%	–
CN(CCCCCCCCCCCCNC(=O)c1cccnc1N)C(C)(C)C [Compound 53, 2-Amino-N-(12-(tert-butyl(methyl)amino)dodecyl) nicotinamide]	–	100.00%	100.00%	100.00%	100.00%	100.00%	–	–
CC(C)(C)OC(=O)NC1CCN(CCCCCCCCCCCCNC(=O)c2cccnc2N)CC1 [Compound 101, tert-Butyl (1-(12-(2-aminonicotinamido)dodecyl)piperidin-4-yl) carbamate]	–	100.00%	100.00%	100.00%	100.00%	100.00%	−0.15%	–
Nc1ncccc1C(=O)NCCCCCCCCCCCCN1CC(F)(F)C1 [Compound 122, 2-Amino-N-(12-(3,3-difluoroazetidin-1-yl)dodecyl) nicotinamide]	–	0.00%	80.00%	100.00%	100.00%	100.00%	0.00%	–
Nc1ncccc1C(=O)NCCCCCCCCCCCCN1CCC2CCCCC2C1 (stereo not drawn) [Compound 16, 2-Amino-N-(12-(Octahydroisoquinolin-2(1H)-Yl)Dodecyl) Nicotinamide]	–	–	100.00%	100.00%	100.00%	100.00%	–	–
Nc1ncccc1C(=O)NCCCCCCCCCCCCn1ccc2c(Cl)c(I)cnc21 [Compound 109, 2-Amino-N-(12-(4-chloro-5-iodo-1H-pyrrolo[2,3-b]pyridin-1-yl)dodecyl) nicotinamide]	–	8.48%	20.91%	100.00%	100.00%	100.00%	0.15%	–
Nc1ncccc1C(=O)NCCCCCCCCCCCCN1CCN(CCO)CC1 [Compound 54, 2-Amino-N-(12-(4-(2-hydroxyethyl)piperazin-1-yl)dodecyl) nicotinamide]	–	100.00%	100.00%	100.00%	100.00%	100.00%	–	–

Reference: patent US20260183303A1, “PDK1 REGULATORY COMPOUND AND COMPOSITION CONTAINING THE SAME” (PROVIBIO CO., LTD., priority 2024, published 2026)
